Consider nine molecules from article PMC10398856 (ACS Omega, 2023).

Series [1] concerns human coronavirus 229E (HCoV-229E). As to the kind of experiment: microbe, parasite or virus in culture. The series is classed as cell-based. The following applies: for IC50: Human coronavirus 229E, A549, read-out: IC50, antiviral effect on HCoV-229E.
For series [2], the system named is SARS-CoV-2. As to the kind of experiment: microbe, parasite or virus in culture. It counts as cell-based. The following applies: for EC50: Severe acute respiratory syndrome coronavirus 2, 48 h, read-out: EC50, antiviral effect on SARS-CoV-2.
For series [3] the following is noted: 1 μM, 30 min, 37 °C.
Series [4] is described as follows: in vivo. The note with it: male, Wistar Albino, rat, po, 10 mg/kg.
A short description of series [5]: in vivo. The following applies: female, Wistar Albino, rat, po.
For series [6] the following is noted: rat, in vivo.

Each structure is given as a SMILES string.

With `O=c1cc(OCCOc2ccnc(SCc3ccc(F)cc3)n2)c2cc(F)ccc2o1` [5c, 6-Fluoro-4-(2-((2-((4-fluorobenzyl)thio)pyrimidin-4-yl)oxy)ethoxy)-2H-chromen-2-one], in series [1], the IC50 was over 25 µM. Besides, the EC50 in series [2] was over 50 µM.
On to `Cc1cccc(CSc2nccc(OCCCOc3cc(=O)oc4ccccc34)n2)c1` [5f, 4-(3-((2-((3-Methylbenzyl)thio)pyrimidin-4-yl)oxy)propoxy)-2H-chromen-2-one], for which, in series [1], the IC50 was over 25 µM. In addition, in series [2], the “selectivity index, SARS-CoV-2” value was under 1 and the EC50 is over 50 µM.
`O=c1cc(OCCOc2ccnc(SCc3ccc(F)cc3)n2)c2ccccc2o1` [5a, 4-(2-((2-((4-Fluorobenzyl)thio)pyrimidin-4-yl)oxy)ethoxy)-2H-chromen-2-one]: the IC50 in series [1] is over 25 µM. Also, in series [2], the EC50 was over 50 µM.
The corresponding values for `O=c1cc(OCCCOc2ccnc(SCc3ccc(F)cc3)n2)c2ccccc2o1` [5b, 4-(3-((2-((4-Fluorobenzyl)thio)pyrimidin-4-yl)oxy)propoxy)-2H-chromen-2-one] are over 25 µM and over 50 µM.
Regarding `Cc1cccc(CSc2nccc(OCCOc3cc(=O)oc4ccccc34)n2)c1` [5e, 4-(2-((2-((3-Methylbenzyl)thio)pyrimidin-4-yl)oxy)ethoxy)-2H-chromen-2-one], in series [1], the “selectivity index, HCoV-229E” value was 3.06 and the IC50 amounted to 24.4 µM. In addition, in series [3], the “metabolic stability against rat liver microsomes” value is on record as “showed metabolic stability”. Further, in series [2], the “selectivity index, SARS-CoV-2” value was determined as 11.4 and the EC50 turned out to be 6.59 ± 0.28 µM. In addition, the “metabolic stability against human liver microsomes” value (1 μM, 30 min, 37 °C) was “showed metabolic stability”. The “compound found to be stable in human liver microsomes” value (human) was over 50%.
Take `Cc1cccc(CSc2nccc(OCCOc3cc(=O)oc4ccc(F)cc34)n2)c1` [5g, 6-Fluoro-4-(2-((2-((3-methylbenzyl)thio)pyrimidin-4-yl)oxy)ethoxy)-2H-chromen-2-one]: in series [1], the IC50 is over 25 µM. For the same molecule, the EC50 in series [2] was over 50 µM.
As to `O=c1cc(OCCOc2ccnc(SCc3ccc(Cl)cc3)n2)c2ccccc2o1` [5i, 4-(2-((2-((4-Chlorobenzyl)thio)pyrimidin-4-yl)oxy)ethoxy)-2H-chromen-2-one], in series [1], the IC50 was over 25 µM. In series [2], the “selectivity index, SARS-CoV-2” value was under 1 and the EC50 is over 50 µM.
With `Cc1cccc(CSc2nccc(OCCCOc3cc(=O)oc4ccc(F)cc34)n2)c1` [5h, 6-Fluoro-4-(3-((2-((3-methylbenzyl)thio)pyrimidin-4-yl)oxy)propoxy)-2H-chromen-2-one], in series [1], the IC50 is over 25 µM. In series [2], the EC50 was over 50 µM.
Turning to `O=c1cc(OCCCOc2ccnc(SCc3ccc(F)cc3)n2)c2cc(F)ccc2o1` [5d, 6-Fluoro-4-(3-((2-((4-fluorobenzyl)thio)pyrimidin-4-yl)oxy)propoxy)-2H-chromen-2-one], in series [1], the IC50 was 15.4 µM. Further, the EC50 in series [2] was determined as 14.3 ± 0.14 µM. Besides, in series [4], the concentration peaked (Cmax) at 220 ng/mL and the half-life is 73.3 h. In series [5], this molecule displayed an LD50 of 500 to 1000 mg/kg. The GHS classification category entry in series [6] (female, Wistar Albino) was “Category-4”. Besides, the “clinical signs of toxicity and gross pathological changes” value in series [6] (po, 300 mg/kg) is on record as “no signs of toxicity”.
